How the values were obtained:
Assay type in all cases: cell-based, human
endothelin 1 (EDN1) = test: Endothelin 1 ELISA assay of culture medium of treated melanocytes; conditions: melanocytes (KaMC), 2 nM substance P
Method: When the density of the melanocytes on the 6-well plate reached about 80% (˜80% confluence), they were incubated for a total of 5 days with 2 nM of stress-inducing substance P (Bachem Fechemikalien, Bubendorf, Switzerland) or the alpine skullcap (Scutellaria alpina) extract of Example 1 of different concentrations (0, 0.1, 1, 2 and 5 ppm). The cells not treated with substance P or the alpine skullcap (Scutellaria alpina) extract of Example 1 were used as a control group.
The culture medium of the cells treated with the extract in (2) of Test Example 1 were recovered and the amount of endothelin 1 (EDN1) comprised in the medium was measured at 450 nm using the human total endothelin ELISA kit (MyBioSource, USA).
Endothelin content (%)=(Absorbance/Total protein)×100 [Equation 1]

[1] = tested on: NK1R (neurokinin 1 receptor) gene; test: Gene expression assay by real-time PCR (NK1R) in melanocytes; conditions: melanocytes (KaMC), 2 nM substance P, 5 days
Method: (§1) Melanocytes (KaMC; KCTC 12015BP) deposited in the Korean Collection for Type Culture (KCTC) were cultured in M-254 medium (Gibco BRL, NY, USA) supplemented with Human Melanocyte Growth Supplement (HMGS; Gibco BRL, NY, USA) on a 6-well plate, while changing the medium every other day, in a 5% CO2 incubator at 37° C. until the cells occupied 95% of the plate area (95% confluence). […] The cells not treated with substance P or the alpine skullcap (Scutellaria alpina) extract of Example 1 were used as a control group. After removing the medium form the melanocytes cultured on the 6-well plate, the cells were washed 2 times with cold phosphate-buffered saline (PBS) and the remaining water was completely removed. […] 1 μL of the RNA was quantified using Synergy II (Biotek, USA). […] After adding 10 μL of Taqman Gene Expression Master Mix (Life Technologies, USA) and 1 μL of Assays-on-DemandTM (Life Technologies, USA) of NK1R (ACCESSION: NM_001058) and EDN1 (ACCESSION: NM_001168319) genes to 9 μL of the diluted cDNA, the expression of the genes was analyzed by relative quantification using 7500 Fast Real-Time PCR (Life Technologies, USA) with glyceraldehyde 3-phosphate dehydrogenase (GAPDH, ACCESSION: NM001256799) as a control gene. […]

EDN1 (endothelin 1) gene = test: Gene expression assay by real-time PCR (EDN1) in melanocytes; conditions: melanocytes (KaMC), 2 nM substance P, 5 days
Method: as §1

In the case of `CSCC[C@H](NC(=O)[C@H](CC(C)C)NC(=O)CNC(=O)[C@H](Cc1ccccc1)NC(=O)[C@H](Cc1ccccc1)NC(=O)[C@H](CCC(N)=O)NC(=O)[C@H](CCC(N)=O)NC(=O)[C@@H]1CCCN1C(=O)[C@H](CCCCN)NC(=O)[C@@H]1CCCN1C(=O)[C@@H](N)CCCN=C(N)N)C(N)=O` [substance P], the “content of endothelin 1 (Absorbance/Total protein x 100, control group = 100%)” value (endothelin 1 (EDN1)) is reported as 124%, the “expression of the NK1R gene (relative quantification vs GAPDH, control group = 1)” value [1] is reported as 3.8 and the “expression of the EDN1 gene (relative quantification vs GAPDH, control group = 1)” value (EDN1 (endothelin 1) gene) is reported as 3.3.

Source: patent publication US20170035828A1, “COMPOSITION CONTAINING SCUTELLARIA ALPINA EXTRACT” (AMOREPACIFIC CORPORATION, priority 2014, published 2017)
